Assay results reported in US20260374754A1, “N-((ISOQUINOLIN-6-YL)METHYL)-1H-PYRAZOLE-4-CARBOXAMIDE DERIVATIVES AS PLASMA KALLIKREIN INHIBITORS FOR THE TREATMENT OF HEREDITARY ANGIODEMA” (Takeda Pharmaceutical Company Limited, priority 2022, published 2026).
Where a name gives a salt, the structure may show the parent alone.

Molecular target: human activated kallikrein enzyme (Homo sapiens, UniProt P03952)
Assay: Inhibition of human activated plasma kallikrein, fluorogenic PFR-AMC substrate, 500 pM enzyme format
Assay type: biochemical
Details: 500 pM activated kallikrein; 300 μM PFR-AMC; 30 min preincubation; 10 min room temperature; pH 7.5; read-out: Primary Dose Response Assay: Average EC50
Summary of the method: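 500 pM activated kallikrein preincubated 30 min at room temperature with inhibitors in pH 7.5 Tris/EDTA/NaCl buffer with PEG-400 and Triton X-100. Reaction started with 300 μM PFR-AMC, run 10 min at room temperature; AMC fluorescence read at ex 380/em 460 nm.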

Chain of human activated kallikrein enzyme (P03952 391-638 limits assumed): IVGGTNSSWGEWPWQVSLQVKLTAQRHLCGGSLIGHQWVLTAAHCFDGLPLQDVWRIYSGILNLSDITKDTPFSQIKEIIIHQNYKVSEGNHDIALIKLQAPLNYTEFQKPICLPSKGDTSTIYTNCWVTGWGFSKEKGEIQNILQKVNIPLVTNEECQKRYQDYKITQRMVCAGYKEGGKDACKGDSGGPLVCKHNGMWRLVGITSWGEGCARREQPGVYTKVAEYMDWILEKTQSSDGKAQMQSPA
Chain of human activated kallikrein enzyme (P03952 20-390 partner limits assumed): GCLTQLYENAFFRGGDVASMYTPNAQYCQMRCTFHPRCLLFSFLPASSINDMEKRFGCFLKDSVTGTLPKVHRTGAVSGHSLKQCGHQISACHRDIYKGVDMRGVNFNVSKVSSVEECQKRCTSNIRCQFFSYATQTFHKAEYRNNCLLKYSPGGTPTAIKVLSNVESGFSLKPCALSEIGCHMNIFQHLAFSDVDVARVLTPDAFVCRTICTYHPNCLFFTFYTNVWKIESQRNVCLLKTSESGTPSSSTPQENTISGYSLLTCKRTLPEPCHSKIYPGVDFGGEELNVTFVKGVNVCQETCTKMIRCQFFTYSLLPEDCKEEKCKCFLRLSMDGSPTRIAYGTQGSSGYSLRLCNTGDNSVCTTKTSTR

Compound	EC50
Cc1cc2c(N)nccc2c(C)c1CNC(=O)c1cnn(C(CNC(=O)OC(C)(C)C)c2ccccc2)c1 (stereo not drawn) [Example 181, tert-butyl (2-(4-(((1-amino-5,7-dimethylisoquinolin-6-yl)methyl)carbamoyl)-1H-pyrazol-1-yl)-2-phenylethyl)carbamate]	> 1000 nM
Cc1cc2c(N)nccc2c(C)c1CNc1cc(NCc2ccc3ncccc3c2)ncn1 [Example 337, N^4-((1-amino-5,7-dimethylisoquinolin-6-yl)methyl)-N^6-(quinolin-6-ylmethyl)pyrimidine-4,6-diamine]	1 to 10 nM
Cc1cc2c(N)nccc2c(C)c1CNc1cc(OCc2cc3cc(C4CC4)ccc3s2)ncn1 [Example 395, 6-(((6-((5-cyclopropylbenzo[b]thiophen-2-yl)methoxy)pyrimidin-4-yl)amino)methyl)-5,7-dimethylisoquinolin-1-amine]	10 to 100 nM
Cc1cc2c(N)nccc2c(C)c1CNC(=O)c1cnn(Cc2nc3ccccc3s2)c1 [Example 76, N-((1-amino-5,7-dimethylisoquinolin-6-yl)methyl)-1-(benzo[d]thiazol-2-ylmethyl)-1H-pyrazole-4-carboxamide]	10 to 100 nM
Cc1cc2c(N)nccc2c(C)c1CNc1cc(NCc2cn3c(C)c(Cl)ccc3n2)ncn1 [Example 330, N^4-((1-amino-5,7-dimethylisoquinolin-6-yl)methyl)-N^6-((6-chloro-5-methylimidazo[1,2-a]pyridin-2-yl)methyl)pyrimidine-4,6-diamine]	< 1 nM
Cc1ccnc(Cc2ccc(CNc3cc(NCc4c(C)cc5c(N)nccc5c4C)ncn3)cc2)c1 [Example 364, N^4-((1-amino-5,7-dimethylisoquinolin-6-yl)methyl)-N^6-(4-((4-methylpyridin-2-yl)methyl)benzyl)pyrimidine-4,6-diamine]	< 1 nM
CCOC(=O)CCc1cc(C2CC2)cc2cc(COc3cc(NCc4c(C)cc5c(N)nccc5c4C)ncn3)nn12 [Example 270, ethyl 3-(2-(((6-(((1-amino-5,7-dimethylisoquinolin-6-yl)methyl)amino)pyrimidin-4-yl)oxy)methyl)-5-cyclopropylpyrazolo[1,5-a]pyridin-7-yl)propanoate]	1 to 10 nM
Cc1cc2c(N)nccc2c(C)c1CNC(=O)c1cnn(Cc2ccc(C#N)cc2)c1 [Example 92, N-((1-amino-5,7-dimethylisoquinolin-6-yl)methyl)-1-(4-cyanobenzyl)-1H-pyrazole-4-carboxamide]	10 to 100 nM
Cc1cc2c(N)nccc2c(C)c1CNc1cc(N(C)Cc2cnc3ccccc3c2)ncn1 [Example 316, N^4-((1-amino-5,7-dimethylisoquinolin-6-yl)methyl)-N^6-methyl-N^6-(quinolin-3-ylmethyl)pyrimidine-4,6-diamine]	10 to 100 nM
Cc1cc2c(N)nccc2c(C)c1CNc1cc(NCc2cc3c(Cl)cccc3cn2)ncn1 [Example 328, N^4-((1-amino-5,7-dimethylisoquinolin-6-yl)methyl)-N^6-((5-chloroisoquinolin-3-yl)methyl)pyrimidine-4,6-diamine, formic acid salt]	1 to 10 nM
Cc1cc2c(N)nccc2c(C)c1CNc1cc(C(F)c2cn3cc(C4CC4)ccc3n2)ncn1 (stereo not drawn) [Example 405, 6-(((6-((6-cyclopropylimidazo[1,2-a]pyridin-2-yl)fluoromethyl)pyrimidin-4-yl)amino)methyl)-5,7-dimethylisoquinolin-1-amine]	< 1 nM
Cc1cc2c(N)nccc2c(C)c1CNS(=O)(=O)c1cnn(Cc2cn3cc(C4CC4)ccc3n2)c1 [Example 490, N-((1-amino-5,7-dimethylisoquinolin-6-yl)methyl)-1-((6-cyclopropylimidazo[1,2-a]pyridin-2-yl)methyl)-1H-pyrazole-4-sulfonamide]	10 to 100 nM
Cc1cc2c(N)nccc2c(C)c1CNC(=O)c1cnn(Cc2ccc3ccc(Br)cc3n2)c1 [Example 156, N-((1-amino-5,7-dimethylisoquinolin-6-yl)methyl)-1-((7-bromoquinolin-2-yl)methyl)-1H-pyrazole-4-carboxamide]	1 to 10 nM
Cc1cc2c(N)nccc2c(C)c1CNc1cc(OCc2ccc3ncccc3c2)ncn1 [Example 374, 5,7-dimethyl-6-(((6-(quinolin-6-ylmethoxy)pyrimidin-4-yl)amino)methyl)isoquinolin-1-amine]	10 to 100 nM
Cc1cc2c(N)nccc2c(C)c1CNC(=O)c1cnn(Cc2ccc(C(F)(F)F)cc2)c1 [Example 93, N-((1-amino-5,7-dimethylisoquinolin-6-yl)methyl)-1-(4-(trifluoromethyl)benzyl)-1H-pyrazole-4-carboxamide]	10 to 100 nM
Cc1cc2c(N)nccc2c(C)c1CNC(=O)c1cnn(Cc2ccc3cc(Cl)ccc3n2)c1 [Example 157, N-((1-amino-5,7-dimethylisoquinolin-6-yl)methyl)-1-((6-chloroquinolin-2-yl)methyl)-1H-pyrazole-4-carboxamide]	1 to 10 nM
Cc1cc2c(N)nccc2c(C)c1CNc1cc(NCc2ccc(Cn3ccccc3=O)cc2)ncn1 [Example 237, 1-(4-(((6-(((1-amino-5,7-dimethylisoquinolin-6-yl)methyl)amino)pyrimidin-4-yl)amino)methyl)benzyl)pyridin-2(1H)-one]	< 1 nM
Cc1cc2c(N)nccc2c(C)c1CNC(=O)c1cn(Cc2ccc(CC(=O)N3CC4CC4C3)cc2)nc1C(F)(F)F (stereo not drawn) [Example 182, 1-(4-(2-(3-azabicyclo[3.1.0]hexan-3-y1)-2-oxoethyl)benzyl)-N-((1-amino-5,7-dimethylisoquinolin-6-yl)methyl)-3-(trifluoromethyl)-1H-pyrazole-4-carboxamide]	< 1 nM
Cc1cc2c(N)nccc2c(C)c1CNc1cc(OCc2cn3cc(C4CC4)ccc3n2)nc(CCC(=O)O)n1 [Example 293, 3-(4-(((1-amino-5,7-dimethylisoquinolin-6-yl)methyl)amino)-6-((6-cyclopropylimidazo[1,2-a]pyridin-2-yl)methoxy)pyrimidin-2-yl)propanoic acid]	< 1 nM
Cc1cc2c(N)nccc2c(C)c1CNc1cc(OCc2ccc3nccn3c2)cnn1 [Example 410, 6-(((5-(imidazo[1,2-a]pyridin-6-ylmethoxy)pyridazin-3-yl)amino)methyl)-5,7-dimethylisoquinolin-1-amine]	100 to 1000 nM
Cc1cc2c(N)nccc2c(C)c1CNc1cc(NCc2ccc(OC3(C(=O)N(C)C)CC3)cc2)ncn1 [Example 357, 1-(4-( ((6-(((1-amino-5,7-dimethylisoquinolin-6-yl)methyl)amino)pyrimidin-4-yl)amino)methyl)phenoxy)-N,N-dimethylcyclopropane-1-carboxamide, formic acid salt]	10 to 100 nM
Cc1cc2c(N)nccc2c(C)c1CNC(=O)c1cnn(CC(=O)N(C)c2ccccc2)c1 [Compound 155]	> 1000 nM
Cc1ncc2ccc(Cn3cc(C(=O)NCc4c(C)cc5c(N)nccc5c4C)cn3)cc2n1 [Example 16, N-((1-amino-5,7-dimethylisoquinolin-6-yl)methyl)-1-((2-methylquinazolin-7-yl)methyl)-1H-pyrazole-4-carboxamide]	1 to 10 nM
Cc1cc2c(N)nccc2c(C)c1CNc1cc(NCc2ccc3ncccc3c2)c(C(N)=O)nn1 [Example 452, 6-(((1-amino-5,7-dimethylisoquinolin-6-yl)methyl)amino)-4-((quinolin-6-ylmethyl)amino)pyridazine-3-carboxamide]	10 to 100 nM
